Measurements from patent US12064398B2, “Parenteral formulations” (Jazz Pharmaceuticals Research UK Limited, priority 2016, dated 2024).

Test: Solubility screening of CBD in solvents/diluents/surfactants
Type: physicochemical
Protocol: […] All the vials were sonicated tor 5 minutes and then left on a roller mixer, mixing for 48 hours. The roller mixer was covered with aluminium foil to prevent light exposure.
After 48 hours, all samples were centrifuged, and the supernatants taken (250 or 500 μL) using a Gilson pipette and added into a 10 ml volume flask. Methanol was used to make up the volume and the samples were tested by HPLC. Sample numbers 5, 9 and 10 were assayed using visual observation as the amount of API that could be added was so high.

Compound: C=C(C)[C@@H]1CCC(C)=C[C@H]1c1c(O)cc(CCCCC)cc1O [CBD, cannabidiol]
- ASSAY CBD (Crodosal HS (0.5% w/v), HPLC): 2.6529 mg/mL
- ASSAY CBD (Crodosal HS (1% w/v), HPLC): 5.4462 mg/mL
- ASSAY CBD (Crodosal HS (2% w/v), HPLC): 5.0344 mg/mL
- ASSAY CBD (Crodosal HS (3% w/v), HPLC): 6.3465 mg/mL
- ASSAY CBD (Crodosal HS (4% w/v), HPLC): 7.5569 mg/mL
- ASSAY CBD (Crodosal HS (5% w/v), HPLC): 7.9983 mg/mL
- ASSAY CBD (ETOH (0.5% v/v), HPLC): 0.0496 mg/mL
- ASSAY CBD (ETOH (1% v/v), HPLC): 0.0426 mg/mL
- ASSAY CBD (ETOH (3% v/v), HPLC): 0.0054 mg/mL
- ASSAY CBD (ETOH (5% v/v), HPLC): 0.0244 mg/mL
- ASSAY CBD (ETOH (100% v/v), visual observation): >1000 mg/mL
- ASSAY CBD (Glucose (5% w/v), HPLC): 0.0008 mg/mL
- ASSAY CBD (Glucose (10% w/v), HPLC): 0.2379 mg/mL
- ASSAY CBD (Glycerol (10% v/v), HPLC): 0.0029 mg/mL
- ASSAY CBD (Glycerol (20% v/v), HPLC): 0.0437 mg/mL
- ASSAY CBD (Glycerol (40% v/v), HPLC): 0.0859 mg/mL
- ASSAY CBD (Mannitol (5% w/v), HPLC): 0.0009 mg/mL
- ASSAY CBD (Mannitol (10% w/v), HPLC): 0.0148 mg/mL
- ASSAY CBD (PEG400 (5% v/v), HPLC): 0.1596 mg/mL
- ASSAY CBD (PEG400 (15% v/v), HPLC): 0.1946 mg/mL
- ASSAY CBD (PEG400 (25% v/v), HPLC): 0.1617 mg/mL
- ASSAY CBD (PEG400 (100% v/v), visual observation): >400 mg/mL
- dissolution of the 10 mg of CBD added (PEG400 and ethanol increased to 50% in water): did not dissolve completely
- ASSAY CBD (PVP K12 (1% w/v), HPLC): 0.0615 mg/mL
- ASSAY CBD (PVP K12 (2% w/v), HPLC, high assay result probably due to sampling problem): 0.1746 mg/mL
- ASSAY CBD (PVP K12 (3% w/v), HPLC): 0.0639 mg/mL
- ASSAY CBD (PVP K12 (5% w/v), HPLC): 0.0157 mg/mL
- ASSAY CBD (PVP K17 (1% w/v), HPLC): 0.0031 mg/mL
- ASSAY CBD (PVP K17 (2% w/v), HPLC): 0.0433 mg/mL
- ASSAY CBD (PVP K17 (3% w/v), HPLC): 0.0409 mg/mL
- ASSAY CBD (PVP K17 (5% w/v), HPLC): 0.2360 mg/mL
- ASSAY CBD (Pluronic F68 (1% w/v), HPLC): 0.1403 mg/mL
- ASSAY CBD (Pluronic F68 (2% w/v), HPLC): 0.5209 mg/mL
- ASSAY CBD (Pluronic F68 (3% w/v), HPLC): 0.5042 mg/mL
- ASSAY CBD (Pluronic F68 (5% w/v), HPLC): 1.0654 mg/mL
- ASSAY CBD (Polysorbate 80 (0.5% w/v), HPLC): 3.2600 mg/mL
- ASSAY CBD (Polysorbate 80 (1% w/v), HPLC): 6.0415 mg/mL
- ASSAY CBD (Polysorbate 80 (3% w/v), HPLC): 22.9779 mg/mL
- ASSAY CBD (Polysorbate 80 (5% w/v), HPLC): 30.6529 mg/mL
- ASSAY CBD (Saline (0.45% w/v), HPLC): 0.0021 mg/mL
- ASSAY CBD (Saline (0.9% w/v), HPLC): 0.0551 mg/mL
- ASSAY CBD (Sucrose (5% w/v), HPLC): 0.0202 mg/mL
- ASSAY CBD (Sucrose (10% w/v), HPLC): 0.0822 mg/mL
- ASSAY CBD (Trehalose (5% w/v), HPLC): 0.0600 mg/mL
- ASSAY CBD (Trehalose (10% w/v), HPLC): 0.0124 mg/mL
- ASSAY CBD (t-butyl alcohol (TBA), (100% v/v), visual observation): >600 mg/mL
